{
  "source": "the NIST ThermoML archive (doi:10.1016/j.fluid.2014.04.003)",
  "conditions": "Crystal; DTA",
  "note": "Numbers after ± are expanded uncertainties.",
  "data": [
    {"smiles": "CC(C)Cc1ccc([C@H](C)C(=O)O)cc1.CCCCCCCCNC[C@H](O)[C@@H](O)[C@H](O)[C@H](O)CO", "note": "[S-ibuprofen n-octyl-d-glucamine salt]", "values": [
      {"measurement": "Normal melting temperature", "result": "139.26 ± 0.39", "unit": "°C"}
    ]}
  ]
}
